This is an account of results in patent publication US20040253243A1, “Aptamer therapeutics useful in ocular pharmacotherapy” (priority 2003, published 2004).

{PEG30K} = 30 kDa polyethylene glycol, attached through the amine; {3T} = T cap; {PEG20K} = 20 kDa polyethylene glycol; [invdT] = inverted (3'-3') thymidine; {NH2} = amine group; m = 2'-O-methyl; r = 2'-OH (RNA); f = 2'-fluoro

For series [1], the target named is T1, TGFβ2 (Homo sapiens, UniProt P61812).
T1 sequence (P61812 303-414 limits assumed): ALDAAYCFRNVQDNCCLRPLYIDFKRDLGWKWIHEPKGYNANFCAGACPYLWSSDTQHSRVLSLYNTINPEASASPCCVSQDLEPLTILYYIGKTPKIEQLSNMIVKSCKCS
The series can be described thus: Nitrocellulose-filter partitioning binding of 32P-labeled aptamer to TGFβ-2 protein. Further details: A synthetic polynucleotide encoding full length human TGFβ2 mature protein was cloned into pRSET E. coli expression vector; made in house. On the procedure:
Dissociation constants for the binding of aptamers to purified human or rodent TGFβ-2 protein were determined by nitrocellulose-filter partitioning using ^32P-labeled RNA. In vitro transcribed RNA was treated with calf-intestinal alkaline phophatase (New England Biolabs) to remove 5′-triphosphates, then radio-labeled by incubation with γ-^32P-ATP and T4 polynucleotide kinase (New England Biolabs). Unincorporated label was removed by gel-filtration, and the RNAs were further purified by polyacrylamide gel electrophoresis (PAGE). Purified ^32P-labeled aptamer in water was refolded just prior to use by heating for 3 min at 95° C., followed by a 10 minute room-temperature incubation in binding buffer (50 mM Hepes, pH 7.4, 1 mM MgCl2, 1 mM CaCl2, 3 mM KCl, 140 mM NaCl, 0.1 mg/ml BSA, 0.01 mg/ml tRNA). The binding reactions (100 μL) were initiated by the addition of aptamer (≦0.1 nM) to excess TGFβ-2 protein (0.2-100 nM), followed by 10-30 minute equilibration at room temperature.
Nitrocellulose-filter partitioning was performed on Minifold® I, 96-well Dot-Blot manifolds (Schleicher & Schuell). Protein-bound aptamer and residual free aptamer were captured, respectively, on pre-wetted Protran nitrocellulose (Schleicher & Schuell) and Hybond-P polyvinylidene difluoride (Amersham Biosciences) filters by vacuum aspiration, and quantified by PhosphorImager (Amersham Biosciences). The proportion of protein-bound aptamer at each TGFβ-2 concentration was plotted as the ratio of counts-per-minute on the Protran nitrocellulose filter (CPMNC) to the sum of CPM on the Protran and Hybond-P filters (CPMtotal). Estimates of dissociation constants (KD) were obtained from a fit of the concentration of TGFβ-2 (i.e., [TGFβ-2])-dependent data to a standard binding isotherm: CPMNC/CPMtotal=Cmax/(1+KD/[TGFβ2]total), where Cmax equals the maximum observed value of CPMNC/CPMtotal at saturating [TGFβ-2], likely reflecting the proportion of properly-folded aptamer that is competent to recognize TGFβ-2.

The target of another series is T2, human TGFβ2 (Homo sapiens, UniProt P61812).
T2 construct: two forms of mature TGFβ2 were generated, native and N-terminal his-tagged versions, in E. coli; made in house; host or cells: E. coli; added as soluble protein to MLEC
T2 sequence (P61812 303-414): T1 sequence (P61812 303-414 limits assumed)
The series can be described thus: MLEC proliferation assay (reversal of TGFβ2-mediated inhibition, BrdU). It counts as cell-based. On the procedure:
MLECs were plated at 2,000 cells per well and incubated at 37° C. for 4 hours. Aptamer and TGFβ2 were added at the indicated concentrations for 16 hours at 37° C. Cell proliferation was measured using BrdU incorporation. BrdU assay was performed as recommended by the manufacturer (Roche Diagnostics).
MLEC Assay. The mink lung epithelial cell proliferation assay is performed over two days. On day 1:1) media is aspirated off from Mink Lung Epithelial Cells (MLEC); 2) the MLEC are washed with 10 ml 1×PBS; 3) 3 ml Trypsin is added and Trypsinize for 3 min at 37° C.; 4) quench with 10 ml 0.5% FBS media; 5) spin at 1000 rpm for 3.30 min; 6) aspirate off supernatant; 7) resuspend pellet in 10 ml 0.5% FBS media; 8) Count 10 μl cell suspension; 9) adjust cell density to 80,000 cells/ml; 10) add 50 μl of cells/well to black bottomed 96-well plates (4000 cells/well); pipet up and down during plating process to avoid settling of cells and uneven plating; 11) incubate cells at 37° C. in 5% CO2 for 4 hrs to allow adherence of cells; 12) add 25 μl of aptamer (or media, or other test reagent, such as for example, an antibody), preferably the outer wells are not used for treated cells; 13) add 25 μl of TGFβ2 (typically 25 pg/ml); and 14) incubate cells at 37° C. in 5% CO2 overnight.
On day 2:1) mix 20 μl BrdU with 2 ml 0.5% FBS media; 2) add 10 μl of BrdU mixture/well; 3) incubate cells at 37° C. in 5% CO2 for 3 hrs; 4) remove media and blot plates dry on paper towels; 5) add 200 μl/well FixDenat solution and incubate for 30 min at room temperature (RT); 6) remove FixDenat solution and blot plates dry on paper towels; 7) add 100 μl /well anti-BrdU POD solution and incubate for 90 min at RT; 8) remove anti-BrdU POD solution and blot plates dry on paper towels; 9) wash plates 3× with […] washing solution with 5 min RT incubations and blot plates dry on paper towels; 10) add 100 μl /well substrate solution and incubate for 3 min at RT in dark; and 11) read plates using PSP Luciferace 1 program on TopCount (Packard Bioscience Co., Downers Grove, Ill.).

The subject of a further series is PDGF AB and BB. The series can be described thus: PDGF binding (Kd). On the set-up: species or system human. To be noted: read-out: Kd, PDGF AB and BB.
A short description of series [2]: Pharmacokinetics via subconjunctival administration. It counts as in vivo, mice. The settings on record: for AUC (0-t) / Cmax / MRT / TLAST / t1/2 / tmax / Vd: subconjunctival, 1 mg/eye bilaterally; for detection in the aqueous humor: after subconjunctival administration. On the procedure:
A pharmacokinetic study was performed to determine the pharmacokinetics of ARC81, ARC117 and ARC119, TGFβ2 aptamers having the sequences of SEQ ID NOs:4, 9 and 11, respectively), via subconjunctival administration in mice. These aptamers were formulated at a concentration of 10 mg/ml. Samples were collected at 0, 0.5, 1, 2, 6, 12, 24, 48 and 96 hours post-administration. FIGS. 21A, 21B and 21C show the aqueous humor and/or plasma concentration of each aptamer (in nM) through 50 hours post dose via subconjunctival administration.

Series [3] concerns the target T1, TGFβ2. Description: Dot blot binding of doped reselection aptamers to TGFβ2. To be noted: CW128_103. Further details: For bio-chemical characterization of these aptamers, two forms of mature TGFβ2 were generated, native and N-terminal his-tagged versions, in E. coli. On the procedure: TGFβ2 was serially diluted in DPBS containing 0.2 mg/ml BSA and 0.2 mg/ml tRNA. ^32P-labeled RNA (<20 pM) were incubated with TGFβ2 at room temperature for 30 min. Samples were pipetted with a multichannel pippetor onto a multiwell manifold holding layers of pre-wetted 0.45 micron nitrocellulose, hybond membrane, 3MM filter paper (the order is from top to bottom), aspirated, and washed 3× with DPBS (containing tRNA). All three filters were air dried, exposed to phosphorimager plate, analyzed by ImageQuant.

Chain of PDGF AB and BB (P01127 82-190 limits assumed): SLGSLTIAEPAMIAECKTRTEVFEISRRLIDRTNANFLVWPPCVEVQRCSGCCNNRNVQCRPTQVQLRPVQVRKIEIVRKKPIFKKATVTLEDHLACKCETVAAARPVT

“5′-NH2-GGAGGfUfUAfUfUAfCAGAGfUfCfUGfUAfUAGfCfUGfUAfCfUfCfC-3T-3′ (GGAGGUUAUUACAGAGUCUGUAUAGCUGUACUCC; 2'-fluoro at CU, RNA at AG, 5' {NH2}, 3' {3T}, backbone not given here) [ARC78]”: the Kd (as a rule, the free concentration of one partner at which half of the binding sites on the other are occupied at equilibrium, for simple one-to-one binding) in the series with TGFβ2 [1] (32P-labeled aptamer, nitrocellulose-filter partitioning, fit to Equation 1, read-out: Kd) is 4 nM. In addition, the “inhibition of the antiproliferative effects of TGFβ2” value with human TGFβ2 (50 pg/ml of TGFβ2, BrdU incorporation) is recorded as “inhibit the antiproliferative effects of 50 pg/ml of TGFβ2”.
“5′-TdAdCTdCdAdGdGdGdCdAdCTdGdCdAdAdGdCdAdATTdGTdGdGTdCdCdCdAdATdGdGdGdCTdGdAdGTdA-3T-3′ (TACTCAGGGCACTGCAAGCAATTGTGGTCCCAATGGGCTGAGTA; 3' [invdT], sugars by position and backbone not given here; further chemistry not fully specified) [ARC125]”: in the series with PDGF AB and BB, the dissociation constant (Kd) came to 0.1 nM.
On to “5′-TdGdGdGdAdGdGdGdCdGdCdGTTdCTTdCdGTdGdGTTdAdCTTTTdAdGTdCdCdCdG-3T-3′ (TGGGAGGGCGCGTTCTTCGTGGTTACTTTTAGTCCCG; 3' [invdT], sugars by position and backbone not given here; further chemistry not fully specified) [ARC123]”, for which the Kd with PDGF AB and BB worked out at 0.1 nM.
As to “5′-[PEG20K]-NH2-mGmGmGmGfUfUAfUfUmAfCmAmGmAmGfUfCfUGfUAfUAmGfCfUmGfUmAfCfCfC-3T-3′ (GGGGUUAUUACAGAGUCUGUAUAGCUGUACCC; sugars from the 5' end mmmmffrffmfmmmmfffrfrfrmffmfmfff, 5' {PEG20K}-{NH2}, 3' {3T}, backbone not given here; PEG attached through 5' amine linker) [ARC117]”, in series [2] (Aq Humour), the “AUC (0-t)” value stood at 87.6 nM·h, the Cmax was 22.9 nM, the MRT turned out to be 3.62 h and the TLAST came to 24 h. In series [2] (Aq Humour), this substance gave a t1/2 of 4.33 h and a tmax of 1 h. Besides, in series [2] (PLASMA), the “AUC (0-t)” value was 1,122.1 nM · h, the Cmax stood at 145 nM, the MRT came out at 9.22 h and the TLAST came to 48 h. For the same substance, in series [2] (PLASMA), the Vd worked out at 1760 mL, the t1/2 was 7.40 h and the tmax was found to be 6 h. Further, in series [2], the “detection in the aqueous humor” value is reported as “detected in the aqueous humor”.
Regarding “5′-[PEG30K]-NH2-mGmGmGmGfUfUAfUfUmAfCmAmGmAmGfUfCfUGfUAfUAmGfCfUmGfUmAfCfCfC-3T-3′ (GGGGUUAUUACAGAGUCUGUAUAGCUGUACCC; sugars from the 5' end mmmmffrffmfmmmmfffrfrfrmffmfmfff, 5' {PEG30K}-{NH2}, 3' {3T}, backbone not given here) [ARC119]”, in series [2] (Aq Humour), the “AUC (0-t)” value was 133.2 nM·h, the Cmax is 28.4 nM, the MRT came to 12.80 h and the TLAST is given as 48 h. Further, in series [2] (Aq Humour), the t1/2 was found to be 17.52 h and the tmax was 0.5 h. Also, in series [2] (PLASMA), the “AUC (0-t)” value is on record as 13,380.5 nM · h, the Cmax worked out at 721 nM, the MRT is reported as 17.28 h and the TLAST was found to be 48 h. In series [2] (PLASMA), this substance showed a Vd of 137 mL, a t1/2 of 6.94 h and a tmax of 12 h. Further, in series [2], the “detection in the aqueous humor” value was “detected in the aqueous humor”.
Take “5′-dCdAdCdAdGdGdCTdAdCdGdGdCdAdCdGTdAdGdAdGdCdATdCdAdCdCdATdGdATdCdCTdGTdG-3T-3′ (CACAGGCTACGGCACGTAGAGCATCACCATGATCCTGTG; 3' [invdT], sugars by position and backbone not given here; further chemistry not fully specified) [ARC124]”: in the series on PDGF AB and BB, the equilibrium dissociation constant (Kd) stood at 0.1 nM.
For “5′-mGmGmAmGmGfUfUAfUfUmAfCmAmGmAmGfUfCfUGfUAfUAmGfCfUmGfUmAfCfUfCfc-3T-3′ (GGAGGUUAUUACAGAGUCUGUAUAGCUGUACUCC; sugars from the 5' end mmmmmffrffmfmmmmfffrfrfrmffmfmffff, 3' {3T}, backbone not given here) [ARC79]”, in the series with TGFβ2 [1] (read-out: KD), the Kd was determined as 1 nM. For the same substance, in the series with human TGFβ2 (read-out: cell IC50), the half-maximal inhibitory concentration (IC50) – broadly, the concentration that gives 50% inhibition – was 10 nM.
“AAGGAGfUAfUfUAfUAGAGfUAfUGfUAfUAGfCfUAfUAfCfCAfU[3T] (AAGGAGUAUUAUAGAGUAUGUAUAGCUAUACCAU; 2'-fluoro at CU, RNA at AG, 3' {3T}, backbone not given here) [ARC281, minimized S5CR12-15]” came in with a dissociation constant (Kd) with TGFβ2 [3] of 1.42 nM.
“AGGGAAfUAfUfUAfUAGAGfUAfUGfUAfUAGfCfUAfUAfCfCAfU[3T] (AGGGAAUAUUAUAGAGUAUGUAUAGCUAUACCAU; 2'-fluoro at CU, RNA at AG, 3' {3T}, backbone not given here) [ARC282, minimized AMX(71)_A8]” showed a Kd with TGFβ2 [3] of 0.62 nM.
For the substance “AfCAGAGfUAfUfUAfUAGAGfUAfUGfUAfUAGfCfUAfUAfCfUGfUfC[3T] (ACAGAGUAUUAUAGAGUAUGUAUAGCUAUACUGUC; 2'-fluoro at CU, RNA at AG, 3' {3T}, backbone not given here) [ARC283, minimized S5CR8-45]”, the Kd in the series with TGFβ2 [3] came out at 1.27 nM.
Turning to “AfUAGAGfCAfUfUAfUAGAGfUAfUGfUAfUAGfCfUAfUAfCfUAfU[3T] (AUAGAGCAUUAUAGAGUAUGUAUAGCUAUACUAU; 2'-fluoro at CU, RNA at AG, 3' {3T}, backbone not given here) [CW128.10.F, minimized AMX(71)_C11]”, in the series with TGFβ2 [3], the dissociation constant Kd was determined as 3.66 nM.
